Data from patent publication US20250144069A1, “BILOBALIDE DERIVATIVE COMPOUNDS FOR TREATING NEUROLOGICAL DISEASES AND CANCERS” (The Chinese University of Hong Kong, priority 2023, published 2025).
Counter-ions that a name gives are not always drawn. Like-named read-outs stand apart in the source and are kept apart here.

What was measured:
Jurkat cells = assay: Single-dose CCK-8 cell viability screening (suspension cells); type: cell-based, human; conditions: Homo sapiens, 48 h, Jurkat cells, 50 uM
A549 cells [1] = assay: Dose-dependent CCK8 viability assay; type: cell-based, human; conditions: Homo sapiens, A549, 48 h
Protocol: (§1) In this example, dose-dependent CCK8 Viability assay was performed to determine the IC50 (the concentration of compound to achieve 50% viability) of several of the hit compounds identified from Example 2. A variety of cell lines were used: • Jurkat cells: Human leukemia • A549 cells: Human NSCLC • KP-1 cells: Mouse NSCLC with KRAS and P53 mutations • MCF-7 cells: Human breast cancer
(§2) Method for Adherent Cells (A549, MCF-7 and KP-1 Cells)
(§3) 5000 cells/100 uL were seeded in 96-well plates and incubate at 37° C.+5% CO2 overnight. Media were replaced with 100 uL of compound per well in 6 replicates in a series of 2-fold dilutions. The following controls were prepared.
(§4) Blank control: 100 uL 0.1% DMSO in media with no cells per well.
(§5) Positive control: 100 uL of 10 uM 5-flurouracil per well.
(§6) Negative control: 100 uL of 0.1% DMSO in media per well.
(§7) Each 96-well plate included 1 compound in 7 concentrations and a complete set of controls (in 6 replicates).
(§8) Cells were incubated at 37° C.+5% CO2 for 46 hours. 10 uL of CCK8 solution was added to each well. Cells were incubated at 37° C.+5% CO2 for 2 hours. Absorbance at 450 nm was measured using a multiplate reader.
(§9) Viability was calculated using the equation: […]

[2] = Single-dose CCK-8 cell viability screening (adherent cells); type: cell-based, human; conditions: Homo sapiens, average of A549 and Jurkat % viability, 50 uM, 48 h
A549 cells [3] = assay: as above; type: cell-based, human; conditions: Homo sapiens, A549 cells, 50 uM, 48 h, CCK-8, read-out: % Viability (50 uM, 48 h) A549
KP-1 cells = assay: Dose-dependent CCK8 viability assay; type: cell-based; conditions: Mus musculus, 48 hours
Protocol: as §1, §2, §3, §4, §5, §6, §7, §8, §9

[4] = test system: HT22 mouse hippocampal cell line; assay: RSL3-induced ferroptosis model, cell viability (CCK-8)
Protocol: In this example, the anti-ferroptotic properties of the BB analogues described in preceding examples were evaluated by a RSL3-induced ferroptosis model. […] To evaluate the anti-ferroptosis activity of BB analogues, we developed a phenotypic screening based on RSL3-induced ferroptosis model on HT22 mouse hippocampal cell line, HMC3 microglial cell line and BV-2 murine microglial cell line which were co-treated or pre-treated with RSL3 and BB analogues for 2-24 h, and the cell viability was subsequently measured.
HMC3 cell line was maintained in Minimum Essential Medium (MEM, Gibco) supplemented with 1× non-essential amino acid (Gibco), 1 mM sodium pyruvate (Gibco), 10% fetal bovine serum (FBS) (Gibco) and 1% penicillin/streptomycin (Gibco). BV-2 cell line was maintained in Roswell Park Memorial Institute (RPMI) 1640 medium (Gibco) supplemented with 10% FBS and 1% penicillin/streptomycin, and HT22 cell line was maintained in Dulbecco's Modified Eagle's Medium (DMEM) (Gibco) supplemented with 10% FBS and 1% penicillin/streptomycin. All cells were incubated at 37° C. in a humidified atmosphere under 5% CO2.
For phenotypic screening of bilobalide (BB) analogues, 5,000 cells per well (100 uL volume) of HT22, HMC3 or BV-2 cells were placed in 96-well plate and allowed to adhere for 22 h. After which, cells were pre-treated with 200 nM (on HT22, HMC3) or 500 nM (on BV-2) of RSL3 (Bidepharm) for 2 h respectively. Medium was then replaced by 50 μM BB analogues and followed by 22 h incubation subsequently. Cell viability was measured using cell counting kit-8 (CCK-8) (MCE). For dose-response of BB analogues, RSL3, HT22 and HMC3 cells (seeded on 96-well plates at 5,000 cells per well) were treated with multiple doses of RSL3 for 2 h. […] Cell viability was measured after 22 h treatment by CCK-8. […] Cell viability was measured by CCK-8 using CLARIOstar monochromator multimode plate reader under 450 nm wavelength.
In this example, the cells were pre-treated with RSL3 (200 nM for HT22 and HMC3, 500 nM for BV-2) for two hours, followed by bilobalide analogues treatment (50 PM) for 22 hours. Cell viability was measured using cell counting kit-8 (CCK-8); n=5 technical replicates. […] Such effect was further investigated by treating the cell lines with various doses of RSL3.

HMC3 cells [5] = assay: Lipid peroxidation level by flow cytometry using C11-BODIPY; type: cell-based
Protocol: (§10) For flow cytometry, HMC3 cells (seeded 50,000 cells per well on 24-well plate one day prior to the experiment) were pretreated with 50 nM RSL3 for 2 h. […] After which medium was replaced with BODIPY™ 581/591C11 (10 μM, Invitrogen) or CellROX™ Green (5 μM, Invitrogen) for 30 min staining. Cells were then washed 3 times with PBS and collected. Fluorescence was measured by BD FACSympgony A5.2 SORP Flow Cell Analyzer (BD Biosciences).
Disequilibrium ROS level acts as a direct initiator of lipid peroxidation, which is one of the major hallmarks of ferroptosis. In this example, HMC3 cells according to the conditions in Table 4 were subjected to measurement of lipid peroxidation level using flow cytometry and the lipid peroxidation sensor C11-BODIPY.
For flow cytometry, HMC3 cells (seeded 50,000 cells per well on 24-well plate one day prior to the experiment) were pretreated with 50 nM RSL3 for 2 h. After RSL3 treatment, medium was replaced by DMSO (0.1%) only, SXQ087-1 (10, 5 and 2.5 μM), following by 3 h treatment. After which medium was replaced with BODIPY™ 581/591C11 (10 μM, Invitrogen) for 30 min staining. Cells were then washed 3 times with PBS and collected. Fluorescence was measured by BD FACSympgony A5.2 SORP Flow Cell Analyzer (BD Biosciences).
Lipid peroxidation is one of the major hallmarks of ferroptosis. In this example, HMC3 cells according to the conditions in Table 5 were subjected to measurement of lipid peroxidation level using flow cytometry and the lipid peroxidation sensor C11-BODIPY.

HMC3 cells [6] = type: cell-based
LC3-II/LC3-I = conditions: HMC3, co-treated with RSL3 1 μM and compound 10, 5, 2.5 μM, 3 h
Protocol: After incubation, cells were washed 3 times with ice-cold PBS and lysed in RIPA buffer containing 1× protease inhibitor cocktail (MCE) and nuclease (Biyotime) on ice for 30 min. All samples were centrifuged and then quantified by bicinchoninic acid (BCA) assay (Pierce). Cell lysates were diluted with Laemmli Sample Buffer (Bio-Rad) and heated at 95° C. for 5 min. Samples were separated by 12% SDS-PAGE and transferred to a polyvinylidene difluoride membrane. Membrane was incubated with 3% bovine serum albumin (BSA, Sigma-Aldrich) for 1 h, and subsequently incubated with indicated primary antibody overnight at 4° C. After incubation, membrane was washed by wash buffer (containing 20 mM Tris, 150 mM NaCl and 0.1% Tween 20), and incubated with peroxidase-conjugated secondary antibody at room temperature for 1 h. Antibodies for GPX4 (52455, Cell Signaling Technology) was used at 1:500 dilution, GAPDH (sc-32233, Santacruz) was used at 1:3000 dilution, LC3B (A19665, ABclonal) was used at 1:1000 dilution. Goat anti-rabbit IgG HRP-linked antibody (7074, CST) was used at 1:2500 dilution, goat anti-mouse IgG (H+L) secondary antibody DyLight™ 488 (35502, Invitrogen) was used at 1:5000 dilution. Blot was washed and visualized using Clarity Western ECL Substrate (Bio-Rad) with ChemiDoc MP Imaging System (Bio-Rad). Band intensity was normalized by image J software.

GPX4 = GPX4 protein level by Western-blot; type: cell-based; conditions: HMC3, co-treated with RSL3 1 μM and compound 10, 5, 2.5 μM, 3 h
Text: As mentioned above, RSL3 treatment results in an oxidized environment in cells, which promotes the CMA to scavenge damaged proteins including GPX4 or glyceraldehyde-3-phosphate dehydrogenase (GAPDH), a well-known CMA substrate. To gain insights into the mechanism of action of bilobalide analogue XBB-037 against the RSL3-induced ferroptosis, HMC3 cells were pre-treated with RSL3, followed by treatment with or without bilobalide analogue XBB-037.
In FIN56 assay, HMC3 (300,000 cells per well on 6-well plate) was pre-treated with FIN56 (2.5, 1.25, 0.625 μM) for 2 h, followed by 8 h treatment of DMSO only (0.1%) or XBB-037 (50 μM). In RSL3 assay, HMC3 (300,000 cells per well on 6-well plate) was pre-treated with RSL3 (750, 500, 250 nM) for 2 h, followed by 4 h or 8 h treatment of DMSO only (0.1%) or XBB-037 (50 μM). […] Antibodies for GPX4 (52455, CST) was used at 1:500 dilution, β-Actin (AC026, ABclonal) was used at 1:400,000 dilution, GAPDH (AC035, ABclonal) was used at 1:3000 dilution. […] Band intensity was normalized by image lab software.
Now referring to FIGS. 7E-7F, GPX4 levels in HMC3 cells pre-treated with RSL3 are shown. Protein levels of GPX4 and […] at 0, 250, 500 or 750 nM RSL3 were measured by Western-blot. HMC3 cells were pretreated with RSL3 for 2 hours and then treated with or without 50 μM bilobalide analogue XBB-037 for 4 hours.
In addition to […], FIN56 was further used to investigate the GPX4 regulation of bilobalide analogue XBB-037. As mentioned above, FIN56 is a Class III ferroptosis inducer, which causes the depletion of cellular GPX4 levels without affecting GPX4 activity. In this experiment, HMC3 cells were pretreated with FIN56 for 2 hours and then treated with or without 50 μM XBB-037 for 8 hours. Protein levels were measured by Western-blotting using indicated antibodies. Data were plotted as mean±s.d., n=3 technical replicates. **p<0.01. Statistical analyses were performed by two-way ANOVA with multiple comparisons using Two-stage linear step-up procedure of Benjamini, Krieger and Yekutieli multiple comparisons test. […]

[7] = test system: HMC3 microglial cell line; assay: RSL3-induced ferroptosis model, cell viability (CCK-8); type: cell-based
[8] = cell free
HMC3 cells [9] = assay: Cytotoxicity, cell viability of HMC3 cells; type: cell-based; conditions: 24 h treatment
Text: Now referring to FIG. 11A, a chart showing the cell viability (%) of HMC3 cells treated with SXQ087-1, XBB-037 or bilobalide.

[10] = test system: BV-2 murine microglial cell line; assay: RSL3-induced ferroptosis model, cell viability (CCK-8)
Protocol: In this example, the anti-ferroptotic properties of the BB analogues described in preceding examples were evaluated by a RSL3-induced ferroptosis model. […] To evaluate the anti-ferroptosis activity of BB analogues, we developed a phenotypic screening based on RSL3-induced ferroptosis model on HT22 mouse hippocampal cell line, HMC3 microglial cell line and BV-2 murine microglial cell line which were co-treated or pre-treated with RSL3 and BB analogues for 2-24 h, and the cell viability was subsequently measured. […]
For phenotypic screening of bilobalide (BB) analogues, 5,000 cells per well (100 uL volume) of HT22, HMC3 or BV-2 cells were placed in 96-well plate and allowed to adhere for 22 h. […] Cell viability was measured using cell counting kit-8 (CCK-8) (MCE). […] Cell viability was measured after 22 h treatment by CCK-8. […] Cell viability was measured by CCK-8 using CLARIOstar monochromator multimode plate reader under 450 nm wavelength.
In this example, the cells were pre-treated with RSL3 (200 nM for HT22 and HMC3, 500 nM for BV-2) for two hours, followed by bilobalide analogues treatment (50 PM) for 22 hours. Cell viability was measured using cell counting kit-8 (CCK-8); n=5 technical replicates. […]

[11] = Hydrolytic stability in buffer monitored by LC-MS/MS
HMC3 cells [12] = assay: Intracellular ROS level by CellROX (fluorescent imaging and flow cytometry); type: cell-based; conditions: HMC3, 50 nM RSL3 2 h, then 50 μM compound 3 h
Protocol: as §10
For fluorescent imaging, 10,000 cells per well of HMC3 were laid on cover slip and incubated overnight. After the same compound treatment as described above in this section, cells were subsequently incubated with CellROX™ Green and Hoechst 34580 (MCE) for 30 min. After incubation, cells were washed 3 times gently with PBS. Cover slips were then attached to glass slides by Anti-Fade Fluorescence Mounting Medium (Abcam) and imaged via ECLIPSE Ti fluorescence microscope (Nikon). Fluorescent intensity was quantified using imageJ software.
To further evaluate the anti-ferroptotic properties of bilobalide analogues, we tested its effect on the total level of intracellular reactive oxygen species (ROS), we performed fluorescent staining on the HMC3 cell line using CellROX, which is a probe which can emit green fluorescence after reacting with ROS. […]

[13] = buffer pH 7.4, within the first 10 hours

**Q.** Which viability at 50 µM (Jurkat cells; Jurkat, CCK-8, read-out: % Viability (50 uM, 48 h) Jurkat) does the source give for `CC(C)(C)[C@]1(O)C[C@@H]2OC(=O)C[C@@]23C(=O)O[C@@H]2N(c4ccc(C(F)(F)F)cc4)C(=O)[C@H](OC(=O)c4ccccc4)[C@]213` [P-29, (3aS,5aS,8R,9R,10aS)-9-(tert-butyl)-9-hydroxy-2,4,7-trioxo-6-(4-(trifluoromethyl)phenyl)octahydro-4H,9H-furo [3″,2″:2′,3′]cyclopenta [1′,2′:3,4]furo [2,3-b]pyrrol-8-yl benzoate] here?
**A.** Its viability at 50 µM is 59.6%.

**Q.** And the IC50 (A549 cells [1])?
**A.** Its IC50 is 5.84 µM.

**Q.** And the viability at 50 µM ([2]; A549, 48 h)?
**A.** The viability at 50 µM was 53.1%.

**Q.** What about the viability at 50 µM (A549 cells [3]; A549, 48 h) of the same compound?
**A.** Its viability at 50 µM is 46.7%.

**Q.** For `CC(C)(C)[C@]1(O)C[C@@H]2OC(=O)C[C@@]23C(=O)O[C@@H]2N(CC4C5CC6CC(C5)CC4C6)C(=O)[C@H](OC(=O)c4ccc(CN)cc4)[C@]213` (stereo partly drawn) [SCC506, (3aS,5aS,8R,8aS,9R,10aS)-6-(((1S,3S)-adamantan-2-yl)methyl)-9-(tert-butyl)-9-hydroxy-2,4,7-trioxooctahydro-4H,9H-furo[3″,2″:2′,3′]cyclopenta[1′,2′:3,4]furo[2,3-b]pyrrol-8-yl 4-(aminomethyl)benzoate hydrochloride], which IC50 (KP-1 cells) is on record?
**A.** The IC50 was 17.2 µM.

**Q.** Which results are given for `CC(C)(C)[C@]1(O)C[C@@H]2OC(=O)C[C@@]23C(=O)O[C@@H]2N(CCc4ccc(O)c(O)c4)C(=O)[C@H](OC(=O)c4ccccc4)[C@]213` [SXQ087-1]?
**A.** inhibition of RSL3-induced ferroptosis (phenotypic screening, cell viability) [4]: effectively inhibit ferroptosis; lipid peroxidation level (C11-BODIPY) (HMC3 cells [5]): significant down-regulation of RSL3-induced lipid peroxidation accumulation in a dose-dependent manner; protection against FIN56-induced cell death (cell viability) (HMC3 cells [6]): effectively suppressed FIN56-induced cell death; protection against ML162 lethality (cell viability) (HMC3 cells [6]): alleviated the lethality of ML162; protection against ML210 lethality (cell viability) (HMC3 cells [6]): alleviated the lethality of ML210; protection against erastin-induced lethality (cell viability) (HMC3 cells [6]): suppressed erastin-induced lethality; LC3-II/LC3-I ratio after RSL3 (LC3-II/LC3-I): increasing LC3-II/LC3-I ratio was also reduced; GPX4 level after RSL3 (GPX4): RSL3-induced GPX4 degradation was reduced; inhibition of RSL3-induced ferroptosis (phenotypic screening, cell viability) [7]: effectively inhibit ferroptosis; radical scavenging activity (relative radical level) [8]: significant dose-dependent radical scavenging activity; cytotoxicity (cell viability) (HMC3 cells [9]): no significant cytotoxicity; inhibition of RSL3-induced ferroptosis (phenotypic screening, cell viability) [10]: effectively inhibit ferroptosis

**Q.** What does the source list for `CC(C)(C)[C@]1(O)C[C@@H]2OC(=O)C[C@@]23C(=O)O[C@@H]2NC(=O)[C@H](O)[C@]213` [XBB-006, (3aS,5aS,8R,8aS,9R,10aS)-9-(tert-butyl)-8,9-dihydroxytetrahydro-4H,9Hfuro[3″,2″:2′,3′]cyclopenta[1′,2′:3,4]furo[2,3-b]pyrrole-2,4,7(3H,8H)-trione]?
**A.** viability at 50 µM (Jurkat cells; CCK-8, read-out: % Viability (50 uM, 48 h) Jurkat): 102%; viability at 50 µM [2]: 99.2%; viability at 50 µM (A549 cells [3]): 96.4%; concentration remaining (hydrolytic stability) ([11]; buffer pH 6.8, after 20 hours): about 80%; concentration remaining (hydrolytic stability) [11, 13]: above 80%

**Q.** Which “shift of RSL3 dose-dependent viability curve” value ([4]; HT22, multiple doses of RSL3, 50 μM compound) does the source give for `CC(C)(C)[C@]1(O)C[C@@H]2OC(=O)C[C@@]23C(=O)O[C@@H]2OC(=O)[C@H](O)[C@]213` [bilobalide] here?
**A.** Its value is “relatively marginal”.

**Q.** What about the “lipid peroxidation level (C11-BODIPY)” value (HMC3 cells [5]; HMC3, 50 nM RSL3 2 h, then 50, 25 and 12.5 μM compound 3 h) of the same compound?
**A.** The value was “no significant alteration”.

**Q.** What about the “intracellular ROS level (CellROX fluorescent staining)” value (HMC3 cells [12]) of the same compound?
**A.** The value was “no reduction in ROS level”.

**Q.** And the “shift of RSL3 dose-dependent viability curve” value ([7]; HMC3, multiple doses of RSL3, 50 μM compound)?
**A.** The value was “relatively marginal”.

**Q.** What about the “cytotoxicity (cell viability)” value (HMC3 cells [9]) of the same compound?
**A.** Its value is “no significant cytotoxicity”.

**Q.** And the “concentration remaining (hydrolytic stability)” value ([11]; buffer pH 6.8, after 20 hours)?
**A.** Its value is “below 20%”.

**Q.** And the “concentration remaining (hydrolytic stability)” value [11, 13]?
**A.** The value was “below 20%”.
